The values that follow come from patent US11999806B2, “Broad-spectrum polypeptide against enterovirus and application thereof” (WUHAN INSTITUTE OF VIROLOGY, CHINESE ACADEMY OF SCIENCES, priority 2018, dated 2024).

Several values for one entry are separate records, joined by “and”; a condition that tells them apart may be missing. Equal values may be shown once. No end group written: not given here.

This test has as its system EV71. As to the kind of experiment: Anti-EV71 efficiency in RD cells, viral RNA by qRT-PCR. The test is classed as cell-based, enterovirus 71. Particulars: for Relative viral RNA amount (%): 24 h, control infected without polypeptide. The protocol:
• (1) RD cells were plated in five 100 mm dishes. • (2) After the cells reached 70%-80% confluence, the MEM medium containing 10% serum was replaced with a MEM medium containing 2% serum. […] When the changes were obvious, samples were collected as follows. • (4) The supernatant in the 100 mm dish was transferred into a 15 ml centrifuge tube, and centrifuged at 500 g for 5 min. • (5) The supernatant was transferred into a new 15 ml centrifuge tube, and filtered through 0.22 μm filter membrane with a 50 ml syringe. • (6) RNA was extracted from 100 μl of the supernatant obtained in step (5) and subjected to one step qRT-PCR to measure the virus titer, and the previously extracted virus RNA with known titer was handled together as a control. 3. Measure Antiviral Efficiency of Polypeptide in RD Cells. • (1) Different cells were plated in 24-well cell plates. • (2) After the cells reached 70%-80% confluence, the MEM medium containing 10% serum was replaced with a MEM medium containing 2% serum (0.5 ml/well), and 5 μl of 10^6 PFU/mL EV71 viruses per well were added. • (3) After 1 h, different polypeptides were added at a final concentration of 0.01 μM, 0.1 μM, 1 μM, 10 μM, and 50 μM, respectively. • (4) Samples were collected 24 hours after virus infection, and RNA was extracted with total RNA extraction kit as follows. • (5) The supernatant in the wells was discarded, then 350 μl of TRK Lysis Buffer was added to each well and the plate was shaken on the shaker for 5 minutes. • (6) 350 μl of 70% ethanol (DEPC-treated) was added to the well and the plate was shaken on the shaker for 5 minutes. • (7) The mixture in the well was transferred to a RNA extraction column and centrifuged at 12,000 g for 1 min. • (8) The solution collected in the recovery tube was added back to the column and centrifuged at 12,000 g for 1 min. • (9) RNA washing buffer 1 was added to the column and centrifuged at 12,000 g for 30 s. • (10) RNA washing buffer 2 was added to the column and centrifuged at 12,000 g for 1 min. • (11) Step (10) was repeated once. • (12) The column was centrifuged at 12000 g for 2 min to completely remove residual RNA washing buffer. • (13) 50 μl DEPC-treated H2O was added to the column and centrifuge at 12,000 g for 2 min. • (14) 2 μl RNA sample was used according to one step qRT-PCR kit for fluorescence quantification experiment.
RD cells added with R8 penetrating peptide (sequence: RRRRRRRR) were used as a negative control.
RD cells were used to test the antiviral effect of polypeptide P2. EV71 (MOI=0.1) was added to RD cells at 80% confluence. After 1 hour of infection, polypeptide P2 was added at concentrations of 0.01 μM, 0.1 μM, 1 μM, 10 μM, and 50 μM, respectively. The samples were collected 24 hours later, and the total RNA was extracted. The level of viral genomic RNA was detected by qRT-PCR. The cells infected with the same type virus and added with penetrating peptide R8 were used as a control group.
• (1) RD cells were plated in five 100 mm dishes. • (2) After the cells reached 70%-80% confluence, the MEM medium containing 10% serum was replaced with a MEM medium containing 2% serum. […] When the changes were obvious, samples were collected as follows. • (4) The supernatant in the 100 mm dish was transferred into a 15 ml centrifuge tube, and centrifuged at 500 g for 5 min. • (5) The supernatant was transferred into a new 15 ml centrifuge tube, and filtered through 0.22 μm filter membrane with a 50 ml syringe. • (6) RNA was extracted from 100 μl of the supernatant obtained in step (5) and subjected to one step qRT-PCR to measure the virus titer, and the previously extracted virus RNA with known titer was handled together as a control. 3. […]
(In qPCR the cycle at which signal appears reflects the starting amount.)

With `CCCCCCCCCCCCCCCC(=O)NCCCC[C@H](NC(=O)CCOCCOCCOCCOCCNC(=O)[C@H](CCCCN)NC(=O)[C@H](C)NC(=O)[C@@H]1CCCN1C(=O)[C@@H](NC(=O)[C@@H](NC(=O)[C@H](Cc1c[nH]c2ccccc12)NC(=O)CNC(=O)[C@H](CCC(N)=O)NC(=O)[C@H](CCC(=O)O)NC(=O)[C@H](CCCNC(=N)N)NC(=O)[C@H](CS)NC(=O)[C@H](Cc1ccc(O)cc1)NC(=O)[C@H](CCC(N)=O)NC(=O)[C@H](CCCNC(=N)N)NC(=O)[C@@H](NC(=O)[C@H](CCC(=O)O)NC(=O)[C@@H](N)CCC(=O)O)C(C)C)[C@@H](C)CC)[C@@H](C)CC)C(=O)O` [3A-EP-PEG4-PA], the “Relative viral RNA amount (%)” value was 72.5% and 68.12% and 59.1% (EV71 MOI=0.1, 0.01 μM); 69.96% and 68.69% and 67.81% (EV71 MOI=0.1, 0.1 μM); 107.1% and 89.26% and 75.24% (EV71 MOI=0.1, 1 μM).

As to `CC[C@@H](C)[C@@H](NC(=O)[C@H]1CCCN1C(C)=O)C(=O)N[C@@H](C(=O)N[C@H](Cc1c[nH]c2ccccc12)C(=O)NCC(=O)N[C@H](CCC(N)=O)C(=O)N[C@H](CCC(=O)O)C(=O)N[C@H](CCCNC(=N)N)C(=O)N[C@H](CS)C(=O)N[C@H](Cc1ccc(O)cc1)C(=O)N[C@H](CCC(N)=O)C(=O)N[C@H](CCCNC(=N)N)C(=O)N[C@@H](C(=O)N[C@H](CCC(=O)O)C(=O)N[C@H](CCC(=O)O)C(=O)N1CCC[C@@H]1C(=O)N1CCC[C@@H]1C(=O)N[C@H](CCCNC(=N)N)C(=O)N[C@H](CCCNC(=N)N)C(=O)N[C@H](CCCNC(=N)N)C(=O)N[C@H](CCC(N)=O)C(=O)N[C@H](CCCNC(=N)N)C(=O)N[C@H](CCCNC(=N)N)C(=O)N[C@H](CCCCN)C(=O)N[C@H](CCCCN)C(=O)N[C@H](CCCNC(=N)N)C(=O)NCC(=O)N[C@H](Cc1ccc(O)cc1)C(N)=O)C(C)C)[C@H](C)CC` [3A-EP-DRI], the “Relative viral RNA amount (%)” value was 75.93% and 73.36% and 72.89% (EV71 MOI=0.1, 0.01 μM); 72.52% and 70.59% and 61.38% (EV71 MOI=0.1, 0.1 μM); 100.5% and 95.84% and 90.71% (EV71 MOI=0.1, 1 μM).

A word on the IC50: it is the midpoint of a concentration-inhibition curve. Turning to RRRRRRRREEVRQYCRDQ [P2], the half-maximal inhibitory concentration (IC50) (read-out: IC50 against EV71 by qRT-PCR) came out at 6.37 µM.
